Measured values published in patent US9629835B1, “Method for treating tau-associated diseases” (NATIONAL TAIWAN NORMAL UNIVERSITY, priority 2016, dated 2017).

Legend:
[1] = tested on: ΔK280 tauRD-DsRed 293 cells; assay: DsRed fluorescence (tau aggregation) in Tet-On ΔK280 tauRD-DsRed 293 cells, high content analysis; assay type: cell-based, human; settings: for DsRed fluorescence intensity relative to untreated cells (100%): 10 μM, 8 h pre-treatment, doxycycline 3 days
Protocol: We used HEK-293 human cells expressing a DsRed-tagged proaggregation mutant (ΔK280) of the C-terminal repeat domain of tau (tauRD-Gln^244-Glu^372 of the longest tau^441 isoform). The recombinant tauRD-DsRed construct was under the control of a hybrid human cytomegalovirus (CMV)/TetO2 promoter that can be induced by adding doxycycline. The Tet-On ΔK280tauRD-DsRed293 cells were grown in medium containing blasticidin (5 μg/mL) and hygromycin (100 μg/mL) and were used for the following evaluation.
(§1) TauRD-DsRed 293 cells were plated into 96-well plates, grown for 24 h, and treated with 0.1, 1, 10 μM of congo red (a known tau aggregation inhibitor), compound (I), compound (II), and compound (III) (SB216763) for 8 h. Then doxycycline (Dox; 1 μg/mL) was added for 3 days and DsRed fluorescence was assessed using a high content analysis system (HCA) system (ImageXpressMICRO, Molecular Devices).
According to the fluorescence microscopy images of untreated cells, and cells treated with congo red, compound (I), compound (II), and SB216763, the quantification results are shown in FIG. 1 which were analyzed related to 100% fluorescence intensity of the untreated cells. […] Based on the results that described above, compound (I) and compound (II) have the ability to decrease tau-aggregation in tauRD-DsRed 293 cells (*p<0.05, **p<0.01).

[2] = tested on: mouse hippocampal primary culture cells; assay: Mouse hippocampal primary culture under tau toxicity induced by Wortmannin and GF 109203X; assay type: cell-based; settings: 1 μM, 12 hours, with 10 nM Wortmannin and GF 109203X
Protocol: The mouse hippocampal primary culture cells were isolated from the hippocampi of C57BL/6J mouse embryos at days 16-18. On days in vitro (DIV) 4 and 7, 2 μM of cytosine arabinoside was added to the culture medium to reduce the glial cell populations. On DIV 9, the cells were treated with 10 nM of Wortmannin (WT) and GF 109203X (GFX) to induce tau hyperphosphorylation to mimic an AD condition.
1 μM of compound (I) or compound (II) were then added to the cells at DIV 9. Cells were harvested 12 hours later for immunocytochemical staining with NeuN (for neuron) and MAP2 (for neurite morphology) antibodies.
The quantification of neuron numbers (NeuN relative expression levels), neurite outgrowth, and the relative number of neuron branches are shown in FIG. 7 to FIG. 9 (*, vs. control; #, vs. WT+GFX. * p<0.05; **/##p<0.01; ###p<0.001). […] The results indicated significant neuronal protective effects of compound (I) and compound (II).

[3] = Cytotoxicity in tauRD-DsRed 293 cells; assay type: cell-based; settings: human, 50% of viability
Protocol: as §1
Also, IC50 cytotoxicity of tauRD-DsRed 293 cells is shown in FIG. 2, wherein the standard line represents 50% of viability.

[4] = tested on: GSK-3β; assay: Western blot of total GSK-3β and phosphorylated GSK-3β (Ser9) in tauRD-DsRed SH-SY5Y cells; assay type: cell-based, human; settings: 10 μM
Protocol: We used human neuroblastoma cells (SH-SY5Y) expressing a DsRed-tagged proaggregation mutant (ΔK280) of the C-terminal repeat domain of tau (tauRD-Gln^244-Glu^372 of the longest tau^441 isoform). The recombinant tauRD-DsRed construct was under the control of a hybrid human cytomegalovirus (CMV)/TetO2 promoter that can be induced by adding doxycycline. The Tet-On ΔK280 tauRD-DsRed SH-SY5Y cells were grown in medium containing blasticidin (5 μg/mL) and hygromycin (100 μg/mL) and were then used for the following evaluation. […]
First, SH-SY5Y tauRD-DsRed cells were seeded in 6-well plates (1×10^5/well) in a medium containing all-trans retinoic acid ([…] Sigma) for inducing the neural differentiation. […] Next, immunoreactive bands were detected using horseradish peroxidase-conjugated goat anti-mouse, goat anti-rabbit, or donkey anti-goat IgG antibodies (1:5000; GeneTex) and chemiluminescent substrate (Millipore) for evaluating the expression levels thereof in cells.
The expression levels of total GSK-3β and phosphorylated GSK-3β are shown in FIG. 3 and the quantifications thereof are shown in FIG. 4 (*p<0.05, ***p<0.001). […]

[5] = target: T1, Recombinant human GSK-3β (Homo sapiens, UniProt P49841); assay: GSK-3β kinase activity, ADP-Glo Kinase Assay; assay type: biochemical
T1 construct: purchased Promega V1991
Protocol: GSK-3β kinase activity was measured in the presence of the tested compounds (I) and (II) using ADP-Glo™ Kinase Assay system (Promega). Recombinant human GSK-3β (Product code V1991, Promega) was used as the enzyme source, and the GSK-3β substrate was derived from human muscle glycogen synthase 1 peptide ([…](pS)EDEEE) which corresponded to a region of glycogen synthase that was phosphorylated by GSK-3β. Reactions were performed at 30° C. for 30 minutes in the 25 μL mixture that contained 25 μM ATP, 0.2 mg/mL GSK-3β substrate, 1 ng of GSK-3β, and serial dilutions of compound (I), compound (II), or compound (III). Kinase activity data were measured as relative light units (RLU) directly correlated with the amount of ADP produced.
The IC50 values of compound (I), compound (II), and compound (III) were determined by using SigmaPLOT software. […] When the concentration of compound (I) and compound (II) were […] μM, the residual activities of GSK-3β of compounds (I) and (II) were 36.1±1.1%, and 90.9±6.6%, respectively.

T1 sequence (P49841 whole entry): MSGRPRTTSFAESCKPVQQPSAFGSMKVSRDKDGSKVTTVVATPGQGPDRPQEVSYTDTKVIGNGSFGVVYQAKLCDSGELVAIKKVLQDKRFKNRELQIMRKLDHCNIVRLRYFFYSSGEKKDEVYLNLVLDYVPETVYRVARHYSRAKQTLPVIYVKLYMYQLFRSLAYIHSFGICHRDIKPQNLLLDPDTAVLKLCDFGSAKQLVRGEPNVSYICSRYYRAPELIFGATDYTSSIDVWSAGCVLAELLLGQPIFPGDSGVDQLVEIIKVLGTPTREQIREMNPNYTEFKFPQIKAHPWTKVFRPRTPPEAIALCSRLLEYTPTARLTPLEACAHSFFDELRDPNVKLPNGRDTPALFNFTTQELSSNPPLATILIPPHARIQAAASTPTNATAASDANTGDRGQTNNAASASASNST

| SMILES | DsRed fluorescence intensity relative to untreated cells (100%) [1] [%] | neuronal protective effect (NeuN neuron number, neurite length, neurite branches) [2] | IC50 [3] [µM] | total GSK-3β expression vs untreated cells [4] | remaining activity at 0.018 µM ([5]; compound concentration 0.018 μM, read-out: residual activity of GSK-3β) [%] | IC50 ([5]; recombinant human GSK-3β, 25 μM ATP, 30° C., 30 minutes) [µM] | effect on tauRD-DsRed fluorescence ([1]; 0.1, 1, 10 μM) |
| --- | --- | --- | --- | --- | --- | --- | --- |
| Cc1ccc(-c2cc(-c3ccncc3)nc3ccccc23)cc1 [compound (I)] | 116 | alleviate the reduction of neuronal survival rate, neurite length, and/or neurite branches | 25.7 | remained about the same without significant changes | 36.1 ± 1.1 | 0.0002 |  |
| CN1CC(C2=C(c3ccc(Cl)cc3Cl)C(=O)NC2=O)c2ccccc21 (centres unmarked) [compound (III), reference compound] |  |  |  |  |  |  | no effect |
| Nc1c(/N=N/c2ccc(-c3ccc(/N=N/c4cc(S(=O)(=O)O)c5ccccc5c4N)cc3)cc2)cc(S(=O)(=O)O)c2ccccc12 [congo red] | 110 |  |  |  |  |  |  |
